For 6 compounds, % of control, % of inhibition and dTagg results are on record in ChEMBL document CHEMBL5465560, “Selectivity Literature for EUbOPEN Chemogenomic Library” (2024).

Experiment [1] has as its target Rho-associated protein kinase 2 (Homo sapiens, UniProt O75116). In words: Selectivity interaction (KinomeScan (DiscoverX)) EUB0000607a ROCK2. The conditions noted are these: at 10 µM.
The target in experiment [2] is T1, Serine/threonine-protein kinase D2 (Homo sapiens) (UniProt Q9BZL6).
T1 sequence (whole entry): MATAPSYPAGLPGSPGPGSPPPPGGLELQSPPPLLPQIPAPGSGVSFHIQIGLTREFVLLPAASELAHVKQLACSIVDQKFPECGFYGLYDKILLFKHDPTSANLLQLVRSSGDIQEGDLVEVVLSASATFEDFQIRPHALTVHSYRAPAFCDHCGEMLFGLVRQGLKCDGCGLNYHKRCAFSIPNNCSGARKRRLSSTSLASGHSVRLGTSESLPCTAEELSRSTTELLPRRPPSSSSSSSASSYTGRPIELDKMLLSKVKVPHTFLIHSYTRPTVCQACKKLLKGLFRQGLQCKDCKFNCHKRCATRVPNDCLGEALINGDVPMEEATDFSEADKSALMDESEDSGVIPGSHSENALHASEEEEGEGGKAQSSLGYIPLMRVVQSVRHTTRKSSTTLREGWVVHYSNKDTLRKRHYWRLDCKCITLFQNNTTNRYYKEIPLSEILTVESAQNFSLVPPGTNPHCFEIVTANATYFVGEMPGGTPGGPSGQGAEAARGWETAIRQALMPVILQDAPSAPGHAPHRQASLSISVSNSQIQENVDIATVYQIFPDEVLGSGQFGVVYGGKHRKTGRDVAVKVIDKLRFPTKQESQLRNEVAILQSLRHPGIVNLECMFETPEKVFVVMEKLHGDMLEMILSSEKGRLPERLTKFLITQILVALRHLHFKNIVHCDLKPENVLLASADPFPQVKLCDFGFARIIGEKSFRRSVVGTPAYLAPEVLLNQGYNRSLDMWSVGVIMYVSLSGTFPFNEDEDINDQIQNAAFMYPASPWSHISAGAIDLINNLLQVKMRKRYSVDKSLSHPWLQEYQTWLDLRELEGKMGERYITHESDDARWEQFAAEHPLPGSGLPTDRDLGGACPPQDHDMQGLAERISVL
Briefly: Selectivity interaction (Kinase screening (Nanosyn)) EUB0000604a PRKD2.

Experiment [3] concerns the target Serine/threonine-protein kinase 38 (Homo sapiens) (UniProt Q15208). Briefly: Selectivity interaction (ActivX KiNativ screen (kinase selectivity in THP-1 cell lysates)) EUB0000639a STK38. Format: subcellular. The note with it: lysate, at 1 µM.
For experiment [4], the target named is Tyrosine-protein kinase JAK1 (Homo sapiens, UniProt P23458). In words: Selectivity interaction (ActivX KiNativ screen (kinase selectivity in THP-1 cell lysates)) EUB0000639a JAK1. In kind it is subcellular. The note with it: lysate, at 0.01 µM.
The target of experiment [5] is T2, TGF-beta receptor type-1 (Homo sapiens) (UniProt P36897).
T2 sequence (whole entry): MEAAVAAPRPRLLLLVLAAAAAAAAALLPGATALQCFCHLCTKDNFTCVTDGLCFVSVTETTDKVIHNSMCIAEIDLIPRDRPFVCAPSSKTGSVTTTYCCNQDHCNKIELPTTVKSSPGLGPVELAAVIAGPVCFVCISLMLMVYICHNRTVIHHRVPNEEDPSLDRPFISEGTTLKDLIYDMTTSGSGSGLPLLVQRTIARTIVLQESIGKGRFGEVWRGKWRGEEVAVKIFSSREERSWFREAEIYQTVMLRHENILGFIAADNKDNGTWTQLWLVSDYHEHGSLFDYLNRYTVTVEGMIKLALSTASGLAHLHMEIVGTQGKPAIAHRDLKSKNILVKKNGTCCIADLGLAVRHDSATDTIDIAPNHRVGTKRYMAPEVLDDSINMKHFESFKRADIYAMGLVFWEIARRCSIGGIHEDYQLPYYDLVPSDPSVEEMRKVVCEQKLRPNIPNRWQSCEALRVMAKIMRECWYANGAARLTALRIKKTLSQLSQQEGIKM
Briefly: Selectivity interaction (ProQinase) EUB0000171b TGFBR1.

Experiment [6] addresses Proto-oncogene tyrosine-protein kinase ROS (Homo sapiens) (UniProt P08922). Briefly: Selectivity interaction (KinomeScan (DiscoverX)) EUB0001049a ROS1. The conditions noted are these: at 1 µM.
In experiment [7] the target is T3, Cyclin-dependent kinase-like 5 (Homo sapiens) (UniProt O76039).
T3 sequence (whole entry): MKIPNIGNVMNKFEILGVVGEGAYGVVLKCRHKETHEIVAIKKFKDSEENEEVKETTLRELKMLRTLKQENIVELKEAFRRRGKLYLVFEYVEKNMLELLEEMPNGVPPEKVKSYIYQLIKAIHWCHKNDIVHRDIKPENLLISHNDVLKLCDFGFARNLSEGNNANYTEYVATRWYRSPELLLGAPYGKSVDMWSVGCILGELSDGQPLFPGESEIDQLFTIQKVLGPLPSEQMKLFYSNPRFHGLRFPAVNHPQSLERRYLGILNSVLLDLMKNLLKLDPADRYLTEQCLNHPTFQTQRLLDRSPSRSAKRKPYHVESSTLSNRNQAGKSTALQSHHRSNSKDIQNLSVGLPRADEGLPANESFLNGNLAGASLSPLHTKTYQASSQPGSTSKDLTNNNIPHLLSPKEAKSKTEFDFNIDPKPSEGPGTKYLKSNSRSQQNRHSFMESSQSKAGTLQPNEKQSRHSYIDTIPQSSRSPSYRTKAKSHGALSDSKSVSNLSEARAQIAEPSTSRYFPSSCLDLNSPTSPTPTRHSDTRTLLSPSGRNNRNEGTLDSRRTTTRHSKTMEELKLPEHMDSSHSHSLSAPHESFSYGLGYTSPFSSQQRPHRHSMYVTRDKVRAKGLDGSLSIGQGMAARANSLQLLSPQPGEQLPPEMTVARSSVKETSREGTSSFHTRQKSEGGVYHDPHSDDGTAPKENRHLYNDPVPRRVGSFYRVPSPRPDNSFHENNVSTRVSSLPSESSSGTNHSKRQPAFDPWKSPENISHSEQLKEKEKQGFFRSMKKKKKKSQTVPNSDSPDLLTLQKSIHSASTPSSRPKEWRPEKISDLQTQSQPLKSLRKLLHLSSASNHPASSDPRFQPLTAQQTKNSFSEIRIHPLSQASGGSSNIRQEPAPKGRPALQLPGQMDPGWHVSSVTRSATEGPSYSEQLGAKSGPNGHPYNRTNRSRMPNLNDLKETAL
Briefly: Selectivity interaction (KinomeScan (DiscoverX)) EUB0001049a CDKL5. The note with it: at 1 µM.

For experiment [8], the target named is Tyrosine-protein kinase Fyn (Homo sapiens) (UniProt P06241). In words: Selectivity interaction (KinomeScan (DiscoverX)) EUB0001049a FYN. The conditions noted are these: at 1 µM.
Experiment [9] deals with Polycomb protein EED (Homo sapiens) (UniProt O75530). In words: Selectivity interaction (PWWP, WD40, and Tudor domain panel (DSLS measurements, literature)) EUB0000270b EED.
Sequence of Polycomb protein EED (Homo sapiens) (O75530 2-441 limits assumed): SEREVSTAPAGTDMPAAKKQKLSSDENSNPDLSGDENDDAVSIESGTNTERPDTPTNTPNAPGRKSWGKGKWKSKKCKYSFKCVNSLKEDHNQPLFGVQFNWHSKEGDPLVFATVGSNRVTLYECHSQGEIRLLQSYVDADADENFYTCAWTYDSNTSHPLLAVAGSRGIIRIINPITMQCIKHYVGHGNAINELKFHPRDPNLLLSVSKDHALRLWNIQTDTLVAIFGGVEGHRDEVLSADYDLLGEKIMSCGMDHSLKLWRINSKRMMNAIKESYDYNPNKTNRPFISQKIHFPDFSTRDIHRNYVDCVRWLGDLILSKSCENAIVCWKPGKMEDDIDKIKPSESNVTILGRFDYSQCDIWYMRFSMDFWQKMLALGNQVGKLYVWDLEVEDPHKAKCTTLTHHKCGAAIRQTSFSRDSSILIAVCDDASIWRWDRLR

Sequence of Tyrosine-protein kinase JAK1 (P23458 whole entry): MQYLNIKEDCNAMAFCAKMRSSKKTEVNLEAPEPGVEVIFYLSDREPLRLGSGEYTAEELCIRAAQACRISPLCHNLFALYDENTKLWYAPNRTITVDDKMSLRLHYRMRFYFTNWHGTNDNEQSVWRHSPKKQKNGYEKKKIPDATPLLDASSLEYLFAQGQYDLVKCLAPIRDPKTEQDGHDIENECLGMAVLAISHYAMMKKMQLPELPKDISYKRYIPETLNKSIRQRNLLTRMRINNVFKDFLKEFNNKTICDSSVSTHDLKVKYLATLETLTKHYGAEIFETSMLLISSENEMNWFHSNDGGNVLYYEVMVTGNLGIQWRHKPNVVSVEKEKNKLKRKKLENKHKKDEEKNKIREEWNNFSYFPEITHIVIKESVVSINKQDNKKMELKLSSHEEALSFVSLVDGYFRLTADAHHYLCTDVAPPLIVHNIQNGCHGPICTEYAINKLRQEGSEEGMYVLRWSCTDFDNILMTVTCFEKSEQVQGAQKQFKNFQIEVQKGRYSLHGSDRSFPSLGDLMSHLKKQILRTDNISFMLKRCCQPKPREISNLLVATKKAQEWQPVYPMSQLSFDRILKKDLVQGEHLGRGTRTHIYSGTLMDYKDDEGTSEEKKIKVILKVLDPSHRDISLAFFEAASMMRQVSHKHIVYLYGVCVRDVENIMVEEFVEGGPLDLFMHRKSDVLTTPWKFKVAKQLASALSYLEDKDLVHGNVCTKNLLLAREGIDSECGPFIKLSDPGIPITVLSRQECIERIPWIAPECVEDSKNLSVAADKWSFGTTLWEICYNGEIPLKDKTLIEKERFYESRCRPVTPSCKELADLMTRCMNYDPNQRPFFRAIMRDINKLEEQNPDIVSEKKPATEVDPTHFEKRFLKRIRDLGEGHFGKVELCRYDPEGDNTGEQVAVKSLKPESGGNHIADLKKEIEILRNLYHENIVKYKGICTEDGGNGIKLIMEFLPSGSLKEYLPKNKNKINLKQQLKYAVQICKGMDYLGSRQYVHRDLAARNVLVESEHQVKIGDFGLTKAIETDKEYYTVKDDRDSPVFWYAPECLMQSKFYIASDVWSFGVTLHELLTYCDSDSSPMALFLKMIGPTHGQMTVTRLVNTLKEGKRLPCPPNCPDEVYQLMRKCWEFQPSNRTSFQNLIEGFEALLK
Sequence of Tyrosine-protein kinase Fyn (Homo sapiens) (P06241 2-537 limits assumed): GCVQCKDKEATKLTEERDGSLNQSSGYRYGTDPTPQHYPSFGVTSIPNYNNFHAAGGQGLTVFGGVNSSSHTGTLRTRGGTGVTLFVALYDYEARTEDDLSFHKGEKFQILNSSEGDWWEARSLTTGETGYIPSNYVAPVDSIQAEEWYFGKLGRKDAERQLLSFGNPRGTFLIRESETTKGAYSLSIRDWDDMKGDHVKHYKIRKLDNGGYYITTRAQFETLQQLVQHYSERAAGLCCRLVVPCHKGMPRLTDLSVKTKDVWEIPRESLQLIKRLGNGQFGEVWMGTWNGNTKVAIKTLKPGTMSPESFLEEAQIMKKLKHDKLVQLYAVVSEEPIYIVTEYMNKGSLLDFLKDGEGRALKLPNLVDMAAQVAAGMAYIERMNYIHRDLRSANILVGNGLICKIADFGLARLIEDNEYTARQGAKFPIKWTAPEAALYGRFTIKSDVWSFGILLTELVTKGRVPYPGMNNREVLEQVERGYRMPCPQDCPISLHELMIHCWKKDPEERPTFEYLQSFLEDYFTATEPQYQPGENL
Sequence of Serine/threonine-protein kinase 38 (Homo sapiens) (Q15208 2-465 limits assumed): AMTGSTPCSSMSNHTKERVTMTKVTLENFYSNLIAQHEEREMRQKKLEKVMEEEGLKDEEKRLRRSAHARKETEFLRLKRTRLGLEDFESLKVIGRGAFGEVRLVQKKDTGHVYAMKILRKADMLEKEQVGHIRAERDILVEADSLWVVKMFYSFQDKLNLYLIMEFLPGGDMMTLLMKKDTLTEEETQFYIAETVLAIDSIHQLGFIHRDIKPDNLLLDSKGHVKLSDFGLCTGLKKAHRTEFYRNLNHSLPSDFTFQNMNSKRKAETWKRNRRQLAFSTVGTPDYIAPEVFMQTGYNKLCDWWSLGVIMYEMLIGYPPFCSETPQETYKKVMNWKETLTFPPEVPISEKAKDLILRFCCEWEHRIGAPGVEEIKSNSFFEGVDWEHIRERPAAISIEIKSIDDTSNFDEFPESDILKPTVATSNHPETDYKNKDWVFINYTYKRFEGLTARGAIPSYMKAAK
Sequence of Proto-oncogene tyrosine-protein kinase ROS (Homo sapiens) (P08922 whole entry): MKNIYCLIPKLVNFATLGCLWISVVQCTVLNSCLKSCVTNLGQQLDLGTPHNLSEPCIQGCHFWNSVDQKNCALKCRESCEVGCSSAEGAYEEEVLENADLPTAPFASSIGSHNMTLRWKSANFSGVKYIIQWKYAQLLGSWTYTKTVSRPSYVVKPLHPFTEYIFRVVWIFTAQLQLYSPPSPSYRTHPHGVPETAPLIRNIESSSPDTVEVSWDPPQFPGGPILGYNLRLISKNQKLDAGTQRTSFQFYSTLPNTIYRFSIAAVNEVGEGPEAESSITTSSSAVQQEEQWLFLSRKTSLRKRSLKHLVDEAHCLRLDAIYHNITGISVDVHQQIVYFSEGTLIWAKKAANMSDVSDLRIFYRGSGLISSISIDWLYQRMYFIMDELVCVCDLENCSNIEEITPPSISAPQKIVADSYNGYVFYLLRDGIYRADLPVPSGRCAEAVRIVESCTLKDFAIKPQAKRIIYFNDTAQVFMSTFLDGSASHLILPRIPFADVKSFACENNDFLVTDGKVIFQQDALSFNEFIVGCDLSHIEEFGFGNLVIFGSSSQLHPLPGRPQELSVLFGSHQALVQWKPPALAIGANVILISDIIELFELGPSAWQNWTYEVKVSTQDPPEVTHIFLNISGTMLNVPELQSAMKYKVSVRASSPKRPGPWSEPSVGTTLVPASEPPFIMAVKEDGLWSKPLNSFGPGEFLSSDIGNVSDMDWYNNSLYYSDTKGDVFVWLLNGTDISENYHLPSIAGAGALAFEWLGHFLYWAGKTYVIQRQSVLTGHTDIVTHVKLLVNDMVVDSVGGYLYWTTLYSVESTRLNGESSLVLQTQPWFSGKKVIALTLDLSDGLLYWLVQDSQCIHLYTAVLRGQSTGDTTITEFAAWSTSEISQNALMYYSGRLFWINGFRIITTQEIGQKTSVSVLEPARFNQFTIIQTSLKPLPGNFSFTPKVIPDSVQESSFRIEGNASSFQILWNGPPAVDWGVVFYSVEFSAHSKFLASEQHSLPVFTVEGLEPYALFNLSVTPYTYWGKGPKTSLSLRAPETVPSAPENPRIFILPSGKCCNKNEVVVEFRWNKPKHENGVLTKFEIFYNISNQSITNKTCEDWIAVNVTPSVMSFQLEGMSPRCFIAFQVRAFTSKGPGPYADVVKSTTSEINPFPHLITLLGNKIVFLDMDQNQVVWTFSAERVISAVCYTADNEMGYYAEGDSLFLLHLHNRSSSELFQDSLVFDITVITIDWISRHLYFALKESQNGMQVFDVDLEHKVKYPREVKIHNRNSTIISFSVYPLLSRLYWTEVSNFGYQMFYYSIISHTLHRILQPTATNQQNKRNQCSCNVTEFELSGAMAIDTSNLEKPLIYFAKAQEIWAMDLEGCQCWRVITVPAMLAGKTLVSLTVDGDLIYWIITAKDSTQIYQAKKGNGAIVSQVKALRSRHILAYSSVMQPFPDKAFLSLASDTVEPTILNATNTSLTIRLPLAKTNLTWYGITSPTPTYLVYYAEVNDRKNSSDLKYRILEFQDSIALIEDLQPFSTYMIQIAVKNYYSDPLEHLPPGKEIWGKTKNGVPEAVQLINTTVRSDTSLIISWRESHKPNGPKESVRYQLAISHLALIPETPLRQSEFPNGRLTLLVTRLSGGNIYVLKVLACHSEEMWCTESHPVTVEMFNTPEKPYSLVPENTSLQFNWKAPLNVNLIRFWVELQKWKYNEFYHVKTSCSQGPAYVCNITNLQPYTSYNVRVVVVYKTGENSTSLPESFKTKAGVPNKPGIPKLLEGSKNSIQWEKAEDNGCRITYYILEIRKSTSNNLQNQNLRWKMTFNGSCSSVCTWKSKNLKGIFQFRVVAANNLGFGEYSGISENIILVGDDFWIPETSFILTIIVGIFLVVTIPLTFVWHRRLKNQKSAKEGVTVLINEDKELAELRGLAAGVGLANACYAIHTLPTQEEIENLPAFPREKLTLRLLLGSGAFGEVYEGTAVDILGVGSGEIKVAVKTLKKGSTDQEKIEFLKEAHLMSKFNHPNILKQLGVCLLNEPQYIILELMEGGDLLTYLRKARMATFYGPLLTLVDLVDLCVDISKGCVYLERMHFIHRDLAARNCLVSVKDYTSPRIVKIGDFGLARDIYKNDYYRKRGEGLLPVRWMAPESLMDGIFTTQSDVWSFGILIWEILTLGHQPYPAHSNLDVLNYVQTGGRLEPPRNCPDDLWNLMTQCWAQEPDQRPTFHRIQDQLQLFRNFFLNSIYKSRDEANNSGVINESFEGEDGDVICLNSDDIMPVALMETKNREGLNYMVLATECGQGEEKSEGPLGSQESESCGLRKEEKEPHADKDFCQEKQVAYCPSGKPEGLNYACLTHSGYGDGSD

In experiment [1], `CNC(=O)Nc1ccc(-c2nc(N3CC4CCC(C3)O4)c3cnn(C4CCC5(CC4)OCCO5)c3n2)cc1` registered a % of control of 100%. Take `Cc1cnc(Nc2ccc(F)cc2Cl)nc1-c1c[nH]c(C(=O)N[C@H](CO)c2cccc(Cl)c2)c1`: in experiment [2], the % of inhibition was found to be 50%. With `CC[C@@H]1[C@H](F)C(=O)N[C@@H]1COc1nccc2cc(C(N)=O)c(OC)cc12` [ZIMLOVISERTIB], the % of inhibition in [3] is 65.8%; in experiment [4], -2.1%. `C=CC(=O)Nc1cccc(C(=O)Nc2ccc(Nc3cc(-c4[nH]c(SC)nc4C)ccn3)cc2)c1`: the % of control is 106% in experiment [5] (at 1 µM) and 92% in experiment [5] (at 5 µM). As for `COc1cc(Nc2nc(C)cc(-c3cnn4nc(OC)ccc34)n2)cc(C(F)(F)F)c1`, the % of control came to 91% in experiment [6], 82% in experiment [7] and 100% in [8].

`Cc1cc(CN)cc(C)c1-c1ncn(C)c1-c1cncn1C`: the dTagg in experiment [9] was determined as 0.2 K.
